According to ChEMBL document CHEMBL1136345, “Heterocyclic ketones as inhibitors of histone deacetylase” (Bioorg Med Chem Lett, 2003):

Key:
Histone deacetylase [1] = experiment: Inhibitory activity against Histone deacetylase (HDAC) in K 562 erythroleukemia cells (Radioactivity based HDAC assay); design: species or system Homo sapiens
Histone deacetylase [2] = experiment: In vitro inhibition of Histone deacetylase in K 562 erythroleukemia cells.; design: species or system Homo sapiens
[3] = Anti-proliferative activity against MDA-435 cells mediated by HDAC inhibition; format: functional, cell-based; conditions: Homo sapiens, MDA435
Histone deacetylase [4] = target: Histone deacetylase; design: species or system Homo sapiens
[5] = Half-life was determined; format: ADME; conditions: human

Row | SMILES | IC50 (Histone deacetylase [1]) [nM] | IC50 (Histone deacetylase [2]) [nM] | other results
1 | Cn1cncc1C(=O)CCCCCCOc1ccc(-c2ccccc2)cc1 | > 50000 | – | –
2 | O=C(CCCCCCC(=O)c1ncco1)NNC(=O)c1ccc(-c2ccccc2)cc1 | 1830 | – | –
3 | O=C(CCCCCCC(=O)c1ncco1)Nc1ccc(Cl)cc1 | – | 320 | –
4 | O=C(CCCCCC(=O)c1ncco1)Nc1cccc(-c2ccccc2)c1 | – | 310 | –
5 | O=C(CCCCC/C=C/c1ccc(-c2ccccc2)cc1)c1ncco1 | – | 990 | –
6 | COc1ccc(-c2csc(NC(=O)CCCCCCC(=O)c3ncco3)n2)cc1 | – | 30 | IC50 [3]: 2300 nM
7 | CNC(=O)C(=O)CCCCCCOc1ccc(-c2ccccc2)cc1 | – | – | IC50 (Histone deacetylase [4]): 110 nM
8 | O=C(CCCCCCOc1ccc(-c2ccccc2)cc1)c1ncc[nH]1 | > 50000 | – | –
9 | O=C(c1ncco1)[C@@H]1C[C@H]1CCCCOc1ccc(Oc2ccccc2)cc1 | > 50000 | – | –
10 | O=C(CCCCCCC(=O)c1ncco1)Nc1ccc(Oc2ccccc2)cc1 | – | 580 | –
11 | O=C(CCCCCCOc1ccc(-c2ccccc2)cc1)C1=NCCO1 | – | 1800 | –
12 | O=C(CCCCCC(=O)c1ncco1)NNc1ccc(Cl)cc1 | > 10000 | – | –
13 | O=C(CCCCCCOc1ccc(-c2ccccc2)cc1)c1nccs1 | > 50000 | – | –
14 | O=C(CCCCCCNc1ccc2ccccc2c1)c1ncco1 | – | 430 | –
15 | O=C(CCCCCC(=O)c1ncco1)NCc1ccc(Cl)cc1 | – | 6400 | –
16 | O=C(NCCCCCCC(=O)c1ncco1)c1cc2ccccc2[nH]1 | – | 90 | –

Row | SMILES | IC50 (Histone deacetylase [1]) [nM] | IC50 (Histone deacetylase [2]) [nM] | other results
17 | O=C(CCCCCCc1nnc(-c2ccc(-c3ccccc3)cc2)o1)c1ncco1 | 250 | – | –
18 | O=C(CCCCCCOc1ccc2ccccc2c1)c1ncco1 | – | 520 | –
19 | O=C(CCCCCCOc1ccc(-c2ccccc2)cc1)c1ccccn1 | > 50000 | – | –
20 | O=C(CCCCCCOc1ccc(-c2ccccc2)cc1)c1ncco1 | – | 1100 | half-life [5]: 10.8 min
21 | OC(CCCCCCOc1cccc(-c2ccccc2)c1)c1ncco1 (centres undefined) | > 50000 | – | –
22 | O=C(CCCCCCS(=O)(=O)c1ccc2ccccc2c1)c1ncco1 | – | 610 | –
23 | O=C(CCCCCCOc1ccc(-c2ccccc2)cc1)c1nc2ncccc2o1 | > 50000 | – | –
24 | O=C(CCCCCCSc1ccc2ccccc2c1)c1ncco1 | – | 540 | –
25 | O=C(NCCCCCC(=O)c1ncco1)c1cc2ccccc2[nH]1 | – | 340 | –
26 | O=C(CCCCCCC(=O)c1ncco1)Nc1cccc(-c2ccccc2)c1 | – | 60 | –
27 | O=C(CCCCCC(=O)c1ncco1)Nc1ccc(Cl)cc1 | – | 1500 | –
28 | Cn1ccnc1C(=O)CCCCCCOc1ccc(-c2ccccc2)cc1 | > 50000 | – | –
29 | O=C(CCCCCCOc1ccc(-c2ccccc2)cc1)c1nc2ccccc2o1 | > 50000 | – | –
30 | O=C(CCCCCCOc1ccc(-c2ccccc2)cc1)c1nnn[nH]1 | – | 2000 | –
31 | O=C(CCCCCCOc1cccc(-c2ccccc2)c1)c1ncco1 | – | 620 | half-life [5]: 12.6 min
